Patent US20100234310A1, “ESTROGENIC COMPOUNDS AND THEIR METHODS OF USE” (Bionovo, Inc., priority 2009, published 2010)

Assays:
[1] = target: T1, ER-β (Homo sapiens, UniProt Q92731); assay: ER-β specific assay: ER-β plasmid co-transfected with TNF-RE-tk-Luc or ERE-tk-Luc; type: cell-based
T1 construct: expressed in transfected cells
Method: Purified compounds were analyzed by LC-MS and NMR and data was compared to data acquired from authentic purchased standards.

[2] = tested on: breast cancer cells; assay: Activity in cancerous cells, in particular breast cancer cells, in vitro; type: cell-based

T1 sequence (Q92731 whole entry, species assumed): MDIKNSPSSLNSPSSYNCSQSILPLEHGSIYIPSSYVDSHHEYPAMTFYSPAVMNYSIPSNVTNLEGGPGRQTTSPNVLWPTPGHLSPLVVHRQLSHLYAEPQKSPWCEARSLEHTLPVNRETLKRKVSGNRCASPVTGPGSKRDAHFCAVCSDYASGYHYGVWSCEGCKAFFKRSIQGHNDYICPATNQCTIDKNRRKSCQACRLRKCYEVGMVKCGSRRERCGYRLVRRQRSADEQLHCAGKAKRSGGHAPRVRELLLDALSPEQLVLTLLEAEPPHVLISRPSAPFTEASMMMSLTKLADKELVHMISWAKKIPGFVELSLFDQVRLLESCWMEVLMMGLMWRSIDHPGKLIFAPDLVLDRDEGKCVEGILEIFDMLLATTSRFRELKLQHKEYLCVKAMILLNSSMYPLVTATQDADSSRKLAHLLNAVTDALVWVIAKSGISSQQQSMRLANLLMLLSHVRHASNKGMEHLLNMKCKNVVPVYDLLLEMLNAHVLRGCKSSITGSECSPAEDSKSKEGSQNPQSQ

C[C@@H]1O[C@@H](Oc2c(-c3ccc(O)c(O)c3)oc3cc(O)cc(O)c3c2=O)[C@H](O)[C@H](O)[C@H]1O [Quercetrin]
estrogenic activity (ER-β-specific) [1]: estrogenic activity

O=c1c(O)c(-c2ccc(O)c(O)c2)oc2cc(O)cc(O)c12 [Quercetin]
estrogenic activity (ER-β-specific) [1]: estrogenic activity

O=c1cc(-c2ccc(O)cc2)oc2cc(O)cc(O)c12 [Apigenin]
induction of apoptosis [2]: active | induction of cell death [2]: active | induction of mitochondrial superoxide [2]: active

O=c1c(O[C@@H]2O[C@H](CO)[C@@H](O)[C@H](O)[C@H]2O)c(-c2ccc(O)c(O)c2)oc2cc(O)cc(O)c12 [Quercetin-3-O-β-glucopyranoside]
estrogenic activity (ER-β-specific) [1]: estrogenic activity

O=C1CC(c2ccc(O)cc2)Oc2cc(O)cc(O)c21 (stereo not shown) [Narigenin]
estrogenic activity (ER-β-specific) [1]: estrogenic activity

O=c1cc(-c2ccc(O)c(O)c2)oc2cc(O)cc(O)c12 [Luteolin]
generation of reactive oxygen species [2]: active | generation/induction of superoxide [2]: active | induction of apoptosis [2]: active | induction of cell death [2]: active | induction of mitochondrial superoxide [2]: active | estrogenic activity (ER-β-specific) [1]: estrogenic activity
